One test deals with p53. The experiment in a line: ELISA of p53 in treated HepG-2 cells. The following applies: for upregulation of p53 expression compared to untreated cells: HepG-2, compound at its IC50, 24 h; for Concentration of p53: HepG-2, compound at its IC50, ± S.E.M, control 48.29±3.87. The test is classed as cell-based, human. On the procedure: (§1) HepG2 cells were cultured in RPMI 10% + 5%FBS penicillin/streptomycin and were incubated at a humidity 5% CO2 and maintained at 37 °C. […] HepG2 cells were cultured as a monolayer in T-25 flasks and were seeded to attain 30% confluency prior to treatment. The main 100 mM stock dissolved in DMSO was diluted with the cell culture medium in order to reach the previously determined IC50 concentration of each of the three preparations. After that, HepG2 cells were collected via trypsinization and centrifuged at 10,000 rpm. The pellet was then rinsed with PBS and lysed in RIPA lysis buffer at 4 °C for 45 min, then centrifuged at 14,000 rpm for 20 min to remove the cellular debris. Lysates were then collected and stored at […] for protein determination. The levels of p53, p21, Fas-L, Bax, Bcl-2, and caspase 3/7 were assessed using the human P53 ELISA kit (Catalog No. ABIN6962151), P21 ELISA kit (Catalog No. ABIN6966175), Human Apoptosis Ligand (FAS-L), Bax ELISA kit, Human Factor-Related. Bcl-2 ELISA kit ELISA kit, and caspase3/7 ELISA kit (Elabscience Biotechnology Co., Wuhan, Hubei, China). The procedure of the used kits was done according to the manufacturer’s instructions. Briefly, equal amounts of cell lysates were loaded and then probed with specific antibodies. The samples were measured at 450 nm in ROBONEK P2000 ELISA reader. The analysis was confirmed with three different sets of extracts. All experiments were done in triplicate (Tables S6–S9).

For another test, the target named is T1, CDK-2 (Homo sapiens, UniProt P24941).
T1 construct: purchased BPS Bioscience 41101
The experiment in a line: Kinase-Glo Plus luminescence kinase inhibition assay, CDK-2. The following applies: for IC50: 10 µM ATP, 30 °C, 40 min, mean ± SEM. The test is classed as biochemical. On the procedure:
The enzyme inhibition assay for the tested molecules was performed at BPS Bioscience Corporation, San Diego, CA, USA. The following materials served as the enzyme sources, Poly (Glu, Tyr) sodium salt (4:1, Glu:Tyr) (Sigma#P7244) served as the standardized substrate, and the Kinase-Glo Plus Luminescence kinase assay kit (Promega # V3772) was used. […] Glo Plus luminescence kinase assay kits. The assays were performed using Kinase-Glo Plus luminescence (Promega Corporation, Madison, WI, USA).
The tested molecules 9, 20, and indurbin were diluted to 100 µL in DMSO (10%), and 5 µL of the solution was added to a 50-µL enzyme reaction until the final concentration of DMSO was 1% in all of reactions. The enzymatic reactions were conducted at 30 °C for 40 min. The reaction mixture contained enzyme substrate and respective kinases. After the enzymatic reaction, 50 µL of enzyme-Glo Plus luminescence […] assay solution (Promega) was added to each reaction, and the plate was incubated for 5 min at room temperature. The luminescence signal was measured using a BioTek Synergy 2 microplate reader. The luminescence data were analyzed using the computer software GraphPad Prism. The difference between luminescence intensities in the absence of enzyme (Lut) and in the presence of enzyme (Luc) was defined as 100% activity (Lut − Luc). The values of enzyme activity percentages versus five concentrations of the small molecule were then plotted using a non-linear regression analysis of the sigmoidal dose–response curve. The IC50 value was determined using GraphPad Prism software. All experiments were repeated three times (Table S3).
Glo Plus luminescence kinase assay kits were used in these assays. The assay was done at Bioscience Laboratory BPS, California, USA. The assay measures kinase activity by quantitating the amount of ATP remaining in the solution following kinase reaction. The luminescent signal from the assay was correlated with the amount of ATP present and inversely correlated with kinase activity. […] All of the enzymatic reactions were conducted at 30 °C for 40 min. The reaction mixture contained 40 mM Tris, pH 7.4, 10 mM MgCl2, 0.1 mg/mL BSA, 1 mM DTT, 10 µM ATP, Kinase substrate, and VEGFR-2, EFGR, CDK-2 and CDK-4 enzymes. After the enzymatic reaction, 50 µL of Kinase-Glo Plus Luminescence kinase assay solution (Promega) was added to each reaction, and the plate was incubated for 5 min at room temperature. The luminescence signal was measured using a BioTek Synergy 2 microplate reader. Kinase activity assays were performed in triplicate for each concentration. The luminescence data were analyzed using the Graphpad Prism software.

The next test has as its system caspase 3/7. Put plainly: ELISA of caspase 3/7 in treated HepG-2 cells. The following applies: for increase of caspase 3/7 levels compared with untreated cells: HepG-2, compound at its IC50, 24 h; for Concentration of caspases 3/7: HepG-2, compound at its IC50, ± S.E.M, control 11.90±1.71. The test is classed as cell-based, human. On the procedure: as §1
In general terms: An ELISA detects its analyte on a solid surface through an enzyme-linked reagent.

A further test concerns Bcl-2. The experiment in a line: ELISA of Bcl-2 in treated HepG-2 cells. The following applies: HepG-2, compound at its IC50; ± S.E.M; control 360.90±31.71. Type of test: cell-based, human. On the procedure: as §1, with “The analysis was confirmed with three different sets of extracts. All experiments were done in triplicate (Tables S6–S9).” left out
In a further test the test system is Bax. The experiment in a line: ELISA of Bax in treated HepG-2 cells. Type of test: cell-based, human. The following applies: HepG-2, compound at its IC50; ± S.E.M; control 18.93±11.71. On the procedure: as §1, with “The analysis was confirmed with three different sets of extracts. All experiments were done in triplicate (Tables S6–S9).” left out

Turning to `O=C1Nc2ccc(Cl)cc2C1=Nc1ccc2nc[nH]c(=O)c2c1` [Compound 9, 6-(5-Chloro-2-oxo-1,2-dihydro-indol-3-ylideneamino)-3H-quinazolin-4-one], in the test with p53, the “upregulation of p53 expression compared to untreated cells” value was 6.7 fold and the “Concentration of p53” value is 325.11 ± 29.55 pg/mL. Also, at CDK-2, the IC50 – broadly, the concentration at which inhibition is half-maximal – turned out to be 9.39 ± 0.51 nM. Further, the “fold higher inhibitory effect than indirubin against CDK-2” value at CDK-2 (relative to indirubin) came to 4.8 fold. Moreover, in the test on caspase 3/7, the “increase of caspase 3/7 levels compared with untreated cells” value amounted to 5.3 fold and the “Concentration of caspases 3/7” value amounted to 62.13 ± 5.27 pg/mL. The “Concentration of Bcl-2” value with Bcl-2 worked out at 90.15 ± 8.27 pg/mL. Also, the “Concentration of Bax” value in the test with Bax stood at 88.12 ± 5.27 pg/mL.
Consider `O=C1Nc2ccc(Cl)cc2C1=Nc1ccc(-c2nc3ccccc3c(=O)[nH]2)cc1` [Compound 20, 2-[4-(5-Chloro-2-oxo-1,2-dihydro-indol-3-ylideneamino)-phenyl]-3H-quinazolin-4-one], for which, in the test with p53, the “upregulation of p53 expression compared to untreated cells” value came to 2.65 fold and the “Concentration of p53” value worked out at 127.43 ± 9.43 pg/mL. Moreover, on CDK-2, the IC50 is 225 ± 12.6 nM. Also, in the test on caspase 3/7, the “increase of caspase 3/7 levels compared with untreated cells” value stood at 3.2 fold and the “Concentration of caspases 3/7” value was determined as 37.32 ± 4.82 pg/mL. The “Concentration of Bcl-2” value in the test with Bcl-2 is 160.32 ± 10.82 pg/mL. In the test on Bax, the “Concentration of Bax” value amounted to 108.32 ± 9.82 pg/mL.

These data come from paper PMC11901902, “Design, Synthesis, and Cytotoxicity Evaluation of Novel Indolin-2-One Based Molecules on Hepatocellular Carcinoma HepG2 Cells as Protein Kinase Inhibitors” (Molecules, 2025).
